This is an account of results in patent publication US20230141603A1, “BENZODIAZEPINE DERIVATIVES AS GABA A GAMMA1 PAM” (Hoffmann-La Roche Inc., priority 2021, published 2023).

In the test the target is T1, h-GABAA α2β2γ1 (Homo sapiens, UniProt P47869+Q8N1C3).
T1 sequence (P47869 29-451): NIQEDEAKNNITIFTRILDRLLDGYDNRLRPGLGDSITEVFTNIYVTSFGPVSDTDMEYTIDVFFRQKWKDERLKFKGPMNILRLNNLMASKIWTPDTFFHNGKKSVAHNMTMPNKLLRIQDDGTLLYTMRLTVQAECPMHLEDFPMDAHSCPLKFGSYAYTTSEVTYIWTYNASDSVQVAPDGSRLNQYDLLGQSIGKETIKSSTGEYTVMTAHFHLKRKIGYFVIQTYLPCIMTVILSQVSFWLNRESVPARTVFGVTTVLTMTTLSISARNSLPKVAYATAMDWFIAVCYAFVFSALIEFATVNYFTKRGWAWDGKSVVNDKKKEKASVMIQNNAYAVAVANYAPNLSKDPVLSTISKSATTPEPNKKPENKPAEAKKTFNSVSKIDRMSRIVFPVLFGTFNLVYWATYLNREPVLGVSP
T1 sequence (P47870 25-512 partner limits assumed): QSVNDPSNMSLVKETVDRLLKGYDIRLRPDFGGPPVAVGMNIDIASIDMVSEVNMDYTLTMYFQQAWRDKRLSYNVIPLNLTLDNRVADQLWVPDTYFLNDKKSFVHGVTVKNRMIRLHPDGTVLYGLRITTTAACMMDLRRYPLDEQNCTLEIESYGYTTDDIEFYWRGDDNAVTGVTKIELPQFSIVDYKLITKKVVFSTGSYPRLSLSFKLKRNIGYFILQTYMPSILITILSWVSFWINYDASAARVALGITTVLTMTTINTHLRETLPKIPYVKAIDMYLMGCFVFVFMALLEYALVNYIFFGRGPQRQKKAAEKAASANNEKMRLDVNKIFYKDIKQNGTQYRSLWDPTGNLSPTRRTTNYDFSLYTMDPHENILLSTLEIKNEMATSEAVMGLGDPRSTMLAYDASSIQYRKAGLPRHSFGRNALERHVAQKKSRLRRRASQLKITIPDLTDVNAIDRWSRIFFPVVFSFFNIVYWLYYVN
T1 sequence (Q8N1C3 36-465): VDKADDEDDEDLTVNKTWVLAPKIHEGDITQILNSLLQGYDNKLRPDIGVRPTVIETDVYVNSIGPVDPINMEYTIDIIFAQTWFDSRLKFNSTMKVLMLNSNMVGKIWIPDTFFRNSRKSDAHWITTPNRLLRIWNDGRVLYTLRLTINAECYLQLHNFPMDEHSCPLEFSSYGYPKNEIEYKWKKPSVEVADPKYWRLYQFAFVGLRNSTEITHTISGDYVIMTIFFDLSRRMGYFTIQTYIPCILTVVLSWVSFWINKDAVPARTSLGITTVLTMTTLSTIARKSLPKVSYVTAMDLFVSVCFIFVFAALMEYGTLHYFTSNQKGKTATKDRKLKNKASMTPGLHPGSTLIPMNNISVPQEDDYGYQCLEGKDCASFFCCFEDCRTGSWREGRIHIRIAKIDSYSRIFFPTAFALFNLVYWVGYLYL
Kind of test: Radioligand binding assay, [3H]RO7239181 competition, HEK293F membranes. Further details: signal peptide of human GABAA α5 subunit (Met1 to Ser31), replacing the α2 signal peptide (N); expressed in transfected cells; host or cells: HEK293F cells (ThermoFisher R79007), membranes. On the procedure: The affinity of compounds at GABAA γ1 subunit-containing receptors was measured by competition for [^3H]RO7239181 (67.3 Ci/mmol; Roche) binding to membranes from HEK293F cells (ThermoFisher R79007) expressing human (transiently transfected) receptors of composition […], α2β2γ1, α1β2γ1.
Harvested pellets from HEK293F cells expressing the different GABAA receptor subtypes were resuspended in Mannitol Buffer pH 7.2-7.4 (Mannitol 0.29M, Triethylamine 10 mM, Acetic acid 10 mM, EDTA 1 mM plus protease inhibitors (20 tablets Complete, Roche Diagnostics Cat. No. 05 056 489 001 per liter)), washed two times and then resuspended at 1:10 to 1:15 dilution in the same buffer. Cell disruption was performed by stirring the suspension in a Parr vessel #4637 at 435 psi for 15 minutes, and then the suspensions were centrifuged at 1000×g for 15 minutes at 4° C. (Beckman Avanti J-HC; rotor JS-4.2). The supernatant (S1) was transferred in a 21 Schott flask and the pellet (P1) was resuspended with Mannitol Buffer up to 175 ml. The resuspended pellet was transferred into a 250 ml Corning centrifugal beaker and centrifuged at 1500×g for 10 minutes at 4° C. (Beckman Avanti J-HC; rotor JS-4.2). The supernatant (S1) was then transferred in the 21 Schott flask and the pellet was discarded. The supernatants (S1) were centrifuged in 500 ml Beckman polypropylene centrifugal beaker at 15′000×g for 30 minutes at 4° C. (Beckman Avanti J-20 XP; rotor JLA-10.500). The pellet (P2) was resuspended with Mannitol Buffer 1:1 and frozen at −80° C. The supernatant (S2) was centrifuged in 100 ml Beckman polypropylene centrifugal tubes at 48000×g for 50 minutes at 4° C. (Beckman Avanti J-20 XP; rotor JA-18). The supernatant (S3) was discarded and the pellet (P3) was resuspended with 1:1 Mannitol Buffer. The P2 and P3 protein concentration was determined with the BIORAD Standard assay method with bovine serum albumin as standard and measured on the NANO-Drop 1000. The membrane suspension was aliquots (500 μl per tube) and stored at −80° C. until required. Membrane homogenates were resuspended and polytronised (Polytron PT1200E Kinematica AG) in Potassium Phosphate 10 mM, KCl 100 mM binding buffer at pH 7.4 to a final assay concentration determined with a previous experiment.
Assays were incubated to equilibrium for 1 hour at 4° C. and then, membranes were filtered onto unifilter (96-well white microplate with bonded GF/C filters preincubated 20-50 minutes in 0.3% Polyethylenimine) with a Filtermate 196 harvester (Packard BioScience) and washed 4 times with cold Potassium Phosphate 10 mM pH 7.4, KCl 100 mM binding buffer. After drying, filter-retained radioactivity was detected by liquid scintillation counting. Ki values were calculated using Excel-Fit (Microsoft) and are the means of two determinations.
The term Ki denotes the dissociation constant of the complex between target and ligand, obtained from inhibition or displacement. Take `Cc1nnc2n1-c1ccc(Br)c(Cl)c1C(c1c(F)cccc1Cl)=NC2` [Example 50, 8-bromo-7-chloro-6-(2-chloro-6-fluoro-phenyl)-1-methyl-4H-[1,2,4]triazolo[4,3-a][1,4]benzodiazepine]: the Ki was 4.7 nM.

As to `Cn1cc(-c2nnc3n2-c2ccc(Cl)c(Cl)c2C(c2ncccc2F)=NC3)cn1` [Example 58, 7,8-dichloro-6-(3-fluoro-2-pyridyl)-1-(1-methylpyrazol-4-yl)-4H-[1,2,4]triazolo[4,3-a][1,4]benzodiazepine], the Ki was determined as 33.1 nM. Compared with the last molecule, the Ki is about 7-fold higher.

Consider `Fc1cccc(F)c1C1=NCc2nncn2-c2ccc(C(F)(F)F)c(Cl)c21` [Example 37, 7-chloro-6-(2,6-difluorophenyl)-8-(trifluoromethyl)-4H-[1,2,4]triazolo[4,3-a][1,4]benzodiazepine], for which affinity was put at a Ki of 41.4 nM.

In turn, `Fc1cccc(F)c1C1=NCc2nncn2-c2ccc(C(F)F)c(Cl)c21` [Example 23, 7-chloro-8-(difluoromethyl)-6-(2,6-difluorophenyl)-4H-[1,2,4]triazolo[4,3-a][1,4]benzodiazepine] displayed a Ki of 54.5 nM.

For the molecule `O=c1[nH]nc2n1-c1ccc(Br)c(Cl)c1C(c1ccccc1F)=NC2` [Example 26, 8-bromo-7-chloro-6-(2-fluorophenyl)-2,4-dihydro-[1,2,4]triazolo[4,3-a][1,4]benzodiazepin-1-one], the Ki was found to be 31.6 nM.

Regarding `Cc1nnc2n1-c1ccc(Br)c(Cl)c1C(c1ncccc1F)=NC2` [Example 24, 8-bromo-7-chloro-6-(3-fluoro-2-pyridyl)-1-methyl-4H-[1,2,4]triazolo[4,3-a][1,4]benzodiazepine], the Ki stood at 24.3 nM. The Ki values of the last two molecules are within 1.5-fold of each other.

Molecule `COc1ccc2c(c1Cl)C(c1c(F)cccc1F)=NCc1nnc(-c3cccnc3)n1-2` [Example 62, 7-chloro-6-(2,6-difluorophenyl)-8-methoxy-1-(3-pyridyl)-4H-[1,2,4]triazolo[4,3-a][1,4]benzodiazepine] displayed a Ki of 55.3 nM.

With `CO[C@H]1C[C@H](c2nnc3n2-c2ccc(Cl)c(Cl)c2C(c2c(F)cccc2F)=NC3)C1` [Example 91, trans-7,8-dichloro-6-(2,6-difluorophenyl)-1-(3-methoxycyclobutyl)-4H-[1,2,4]triazolo[4,3-a][1,4]benzodiazepine], the Ki was 36.3 nM. This Ki is about 1.5-fold lower than that of the molecule before.

`Clc1cccnc1C1=NCc2nnc(-c3cccnn3)n2-c2ccc(Br)c(Cl)c21` [Example 47, 8-bromo-7-chloro-6-(3-chloro-2-pyridyl)-1-pyridazin-3-yl-4H-[1,2,4]triazolo[4,3-a][1,4]benzodiazepine]: the Ki came out at 15.9 nM.

Turning to `Cl.NCc1nnc2n1-c1ccc(Br)c(Cl)c1C(c1c(F)cccc1F)=NC2` [Example 36, [8-bromo-7-chloro-6-(2,6-difluorophenyl)-4H-[1,2,4]triazolo[4,3-a][1,4]benzodiazepin-1-yl]methanamine hydrochloride], the Ki was found to be 8.5 nM.

Molecule `Fc1cccc(F)c1C1=NCc2nncn2-c2ccc(Cl)c(Cl)c21` [Example 15, 7,8-dichloro-6-(2,6-difluorophenyl)-4H-[1,2,4]triazolo[4,3-a][1,4]benzodiazepine] showed a Ki of 8.7 nM.

Turning to `CC(F)(F)c1ccc2c(c1Cl)C(c1c(F)cccc1F)=NCc1nncn1-2` [Example 21, 7-chloro-8-(1,1-difluoroethyl)-6-(2,6-difluorophenyl)-4H-[1,2,4]triazolo[4,3-a][1,4]benzodiazepine], the affinity corresponds to a Ki of 52 nM.

Take `Fc1cccnc1C1=NCc2nnc(-c3cccnn3)n2-c2ccc(Br)c(Cl)c21` [Example 45, 8-bromo-7-chloro-6-(3-fluoro-2-pyridyl)-1-pyridazin-3-yl-4H-[1,2,4]triazolo[4,3-a][1,4]benzodiazepine]: the Ki amounted to 15.8 nM.

As for `Cc1nnc2n1-c1ccc(Cl)c(Cl)c1C(c1ccccc1F)=NC2` [Example 4, 7,8-dichloro-6-(2-fluorophenyl)-1-methyl-4H-[1,2,4]triazolo[4,3-a][1,4]benzodiazepine], the Ki came out at 65.8 nM.
